The assay concerns stratum corneum (SC). Description: Stratum corneum (SC) tape stripping, keratolytic efficacy. In kind it is in vivo. The conditions noted are these: for increase of SC removal: for 3-6 hours. An excerpt:
Keratolytic efficacy of an agent is optionally assessed by examining stratum corneum (SC) tape strippings to measure the total SC protein amount removed and on the tape. The amount of skin mass on the tape is directly proportional to the amount of keratolysis. Salicylic acid is a keratolytic, while retinoic acid is known mostly for its comedolytic properties, and benzoyl peroxide is known mostly for its anti-microbial mechanism. Here, all three were examined for relative keratolytic efficacy.

Consider `O=C(O)c1ccccc1O` [salicylic acid], for which the “increase of SC removal” value is listed as “about 10%”.
For `O=C(OOC(=O)c1ccccc1)c1ccccc1` [benzoyl peroxide], the “increase of SC removal” value is listed as “about 10%”. The “effectiveness in interfering with SC cohesion” value (After 3 hours) is listed as “significantly more effective in interfering with SC cohesion than either salicylic acid or retinoic acid”. In addition, the “keratolytic effects (tape stripping)” value (overall comparison) was “comparable to that of salicylic acid and retinoic acid”.
For the compound `CC1=C(/C=C/C(C)=C/C=C/C(C)=C/C(=O)O)C(C)(C)CCC1` [retinoic acid], the “increase of SC removal” value is recorded as “approximately 35%”.

(Values after patent publication US20260108533A1, “COMPOSITIONS AND METHODS FOR THE TREATMENT OF MEIBOMIAN GLAND DYSFUNCTION” (Azura Ophthalmics Ltd., priority 2019, published 2026).)
